We go through three compounds from patent US7307097B2, “Chemical compounds” (SmithKline Beechman Corporation, priority 2001, dated 2007).

One test concerns the target Recombinant GST-Tie2 (Homo sapiens, UniProt Q02763). The test is described as follows: Tie2 fluorescence polarization kinase activity assay (TIE2-FP). The test is classed as biochemical. The following applies: 200 μM ATP, activated enzyme; read-out: TIE2-FP pIC50 (converted). Here is the method:
Tie2 Fluorescence Polarization Kinase Activity Assay (TIE2-FP) Activation of Recombinant Tie2 Activation: Recombinant GST-Tie2 is activated by incubating the enzyme in 20 mM Tris-HCl, pH7.5, 12 mM MgCl2, 100 mM NaCl, 20 μM sodium vanidate, 1 mM DTT and 300 μM ATP at room temperature for 2 hours. The activation mixture is then passed through a NAP-25 desalting column (Pharmacia Biotech cat. no. 17-0852-02) to remove the free ATP. The activated enzyme is stored as aliquots at−80° C. in 20mM Tris-HCl, pH7.5 and 100 mM NaCl. Assay Conditions: The final assay conditions are 50 mM HEPES, pH7.5, 5% DMSO (when screening compounds), 200 μM ATP, 5mM MgCl2, 1 mM DTT, 50 μM sodium vanidate, 1 nM activated enzyme, and 200 μM peptide. IC50's of compounds are measured under subsaturating ATP (200 μM) and varing concentrations of activated Tie2 and peptide substrate (RFWKYEFWR-OH; MW 1873 Da, TFA salt). Panvera Anti-phosphotyrosine antibody (Cat#P2840) and PTK Green Tracer (Cat#P2842) are used to detect the phosphorylated peptide. Polarization is measured on a TECAN Polarion in 138-second cycles for 30 minutes at room temperature. IC50's are then determined from the % polarization using normal calculation methods. The IC50 values are converted to pIC50 values, i.e.,−log IC50 in Molar concentration.
For orientation: Fluorescence polarisation rises when a labelled molecule tumbles more slowly, as on binding a larger partner.

The test system of test [1] is Human umbilical cord endothelial cells (HUVEC). The test is described as follows: VEGF-driven cellular proliferation assay: BrdU incorporation assay (VEGF-C). Format: cell-based. The settings on record: read-out: VEGF-C pIC50 (converted). The protocol: VEGF-driven Cellular Proliferation Assay: BrdU Incorporation Assay (VEGF-C)
Human umbilical cord endothelial cells (HUVEC, Clonetics, CC2519) are passaged in Type I collagen-coated 100-mm petridishes in EGM-MV medium (Clonetics, CC3125) at 37 C. in a humidified 5% CO2, 95% air incubator. (HUVEC passaged more than 6 times in vitro are discarded and not subjected to assaying.) The cells are harvested using trypsin/EDTA, counted using a haemocytometer and plated at 5000 cells/well in a Type I-collagen coated 96-well plate (Becton Dickinson, 354407) in M199 medium (Gibco BRL, 12340-030) containing 5% FBS (Hyclone, A 1115-L) and gentamicin (at 50 ug/ml, Gibco BRL). After incubation overnight at 37° C., the media are replaced with 100 ul of M199 serum-free medium containing compounds at various concentrations with 0.6% DMSO and gentamicin. The compounds are diluted in serum-free M199 medium from 10 mM stock solutions prepared in 100% DMSO. […] The incorporation of BrdU into the proliferating HUVEC are analyzed using BrdU Cell Proliferation ELISA (Roche Molecular Biochemicals, 1647229) according to the manufacturer's protocols. The optical density at 450 nm is measured with a multilabel counter (ARVO SX, Wallac). The percent inhibition of cell growth is calculated relative to blank control wells. […]
In general terms: Uptake of a labelled nucleoside into DNA is a usual measure of proliferation.

In another test the target is T1, GST-VEGFR2 (Homo sapiens, UniProt P35968).
T1 construct: recombinant constructs of the intracellular domains of human TIE2 tagged by GST; made in house
T1 sequence (P35968 786-1356 limits assumed): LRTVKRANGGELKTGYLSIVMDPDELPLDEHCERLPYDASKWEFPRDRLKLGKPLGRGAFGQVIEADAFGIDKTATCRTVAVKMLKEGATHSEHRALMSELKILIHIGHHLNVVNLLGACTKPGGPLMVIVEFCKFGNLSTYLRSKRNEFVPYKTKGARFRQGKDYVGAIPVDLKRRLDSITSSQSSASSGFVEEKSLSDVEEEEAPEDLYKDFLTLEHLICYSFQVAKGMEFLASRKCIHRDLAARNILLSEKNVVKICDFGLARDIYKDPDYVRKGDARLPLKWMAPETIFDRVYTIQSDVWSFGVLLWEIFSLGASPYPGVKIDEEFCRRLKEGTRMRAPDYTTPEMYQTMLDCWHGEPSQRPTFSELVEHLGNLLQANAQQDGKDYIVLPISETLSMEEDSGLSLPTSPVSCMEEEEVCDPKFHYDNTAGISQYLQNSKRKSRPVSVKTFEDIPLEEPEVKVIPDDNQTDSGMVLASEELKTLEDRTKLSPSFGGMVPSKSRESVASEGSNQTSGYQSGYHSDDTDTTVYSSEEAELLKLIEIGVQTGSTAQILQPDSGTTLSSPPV
As to the kind of experiment: VEGF-R2 enzyme assay (VEGFR-2-E2), LANCE method. The following applies: 75 uM ATP. Format: biochemical. The source says: VEGF-R2 Enzyme Assay (VEGFR-2-E2)
The VEGF enzyme assay uses the LANCE method (Wallac) and GST-VEGFR2, baculovirus expressed recombinant constructs of the intracellular domains of […] tagged by GST. The method measures the ability of the purified enzymes to catalyse the transfer of the γ-phosphate from ATP onto tyrosine residues in a biotinylated synthetic peptide, (biotin-aminohexyl-EEEEYFELVAKKKK-NH2). This peptide phosphorylation is detected using the following procedure: GST-VEGFR2 is incubated for 40-60 mins at room temperature with 75 uM ATP, 5 mM MgCl2, 0.1 mM DTT, 0.1 mg/mL BSA and the test compound (diluted from a 10 mM stock in DMSO for desired concentration) in 100 mM HEPES buffer. The reaction is stopped by the addition of EDTA (final concentration 50 mM). Streptavidin linked-APC (allophycocyanin, Molecular Probe) and Europium-labeled anti-phosphorylated tyrosine antibody (Wallac) are then added at the final concentration of 15 nM and 1 nM, respectively. The APC signal is measured using an ARVO multilabel counter (Wallac Berthold, Japan). The percent inhibition of activity is calculated relative to blank control wells. The concentration of test compound that inhibits 50% of activity (IC50) is interpolated using nonlinear regression (Levernberg-Marquardt) and the equation, y=Vmax (1−x/(K+x))+Y2, where “K” is equal to the IC50. […]
A general note: TR-FRET usually uses a lanthanide donor and a delayed reading to cut background.

Test [2] deals with T2, human VEGFR3 catalytic domain (Homo sapiens, UniProt P35916, H890Q).
T2 construct: made in house; host or cells: Sf9 insect cells (baculovirus, pFastBac1)
T2 sequence (P35916 with tags, fused parts or gaps isoform P35916-1 H890Q): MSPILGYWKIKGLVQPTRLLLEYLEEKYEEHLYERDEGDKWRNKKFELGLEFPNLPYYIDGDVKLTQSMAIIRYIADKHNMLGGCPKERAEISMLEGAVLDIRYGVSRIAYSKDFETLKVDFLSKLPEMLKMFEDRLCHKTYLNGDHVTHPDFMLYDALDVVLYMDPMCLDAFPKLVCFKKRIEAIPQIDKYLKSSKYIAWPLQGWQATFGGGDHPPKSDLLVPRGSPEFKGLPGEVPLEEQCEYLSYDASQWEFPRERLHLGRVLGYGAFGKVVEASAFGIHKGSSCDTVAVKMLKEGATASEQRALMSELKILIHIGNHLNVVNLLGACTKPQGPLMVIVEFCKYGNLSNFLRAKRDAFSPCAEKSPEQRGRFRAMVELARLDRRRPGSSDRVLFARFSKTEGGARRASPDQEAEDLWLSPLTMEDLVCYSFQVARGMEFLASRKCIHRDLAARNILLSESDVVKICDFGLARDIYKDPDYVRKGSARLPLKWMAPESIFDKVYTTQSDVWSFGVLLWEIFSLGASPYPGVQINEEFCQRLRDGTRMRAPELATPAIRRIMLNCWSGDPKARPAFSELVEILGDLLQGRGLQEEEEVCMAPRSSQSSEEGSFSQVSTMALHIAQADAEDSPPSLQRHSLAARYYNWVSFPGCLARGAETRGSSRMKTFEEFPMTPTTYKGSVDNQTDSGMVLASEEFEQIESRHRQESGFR
The test is described as follows: VEGFR-3 homogenous time-resolved fluorescence assay (VEGFR-3-HTRF). The test is classed as biochemical. The following applies: 75 μM ATP, 1 nM enzyme. The text has this: VEGFR-3—Homogenous Time-resolved Fluorescence Assay (VEGFR-3-HTRF)
This assay assesses Vascular Endothelial Growth Factor 3 (VEGFR3) tyrosine kinase inhibitory activity in substrate phosphorylation assays. The assay examines the ability of small molecule organic compounds to inhibit the tyrosine phosphorylation of a peptide substrate.
The substrate phosphorylation assays use the VEGFR3 catalytic domain, which is expressed in Sf. 9 insect cells as an amino-terminal GST-tagged fusion protein. The catalytic domain of human VEGFR3 (AA residues #819-1298 based upon GenBank Accession #XM003852) is cloned by PCR from human Placenta Marathon Ready cDNA (Clontech). The PCR product is subcloned into pFastBac1 vector containing an N-terminal GST tag. […]
200 nM VEGFR3 enzyme is activated for 45 minutes at room temperature by incubating the enzyme in buffer containing 100 mM HEPES (pH7.2), 75 μM ATP, 0.3 mM DTT, 0.1 mg/mL BSA, and 10 mM MgCl2. […] Assay plates are left unsealed and are counted in a Wallac Multilabel Counter 1420 (PerkinElmer).
The data for dose responses are plotted as % Control calculated with the data reduction formula 100*(U1-C2)/(C1-C2) versus concentration of compound where U is the unknown value, C1 is the average control value obtained for DMSO, and C2 is the average control value obtained for 0.1M EDTA. […]

The target in test [3] is T3, GST-TIE2 (intracellular domains of human TIE2) (Homo sapiens, UniProt Q02763).
T3 construct: made in house
T3 sequence (Q02763 762-1104): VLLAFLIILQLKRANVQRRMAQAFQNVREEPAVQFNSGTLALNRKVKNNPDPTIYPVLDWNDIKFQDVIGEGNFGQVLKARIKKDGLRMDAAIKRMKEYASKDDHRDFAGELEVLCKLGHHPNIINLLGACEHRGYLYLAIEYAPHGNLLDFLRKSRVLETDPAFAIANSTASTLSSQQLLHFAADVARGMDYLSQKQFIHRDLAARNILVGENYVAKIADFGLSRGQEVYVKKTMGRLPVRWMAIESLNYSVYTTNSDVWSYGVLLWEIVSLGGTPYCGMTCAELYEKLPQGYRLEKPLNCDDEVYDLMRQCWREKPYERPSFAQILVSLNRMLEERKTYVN
As to the kind of experiment: TIE-2 enzyme assay (TIE-2-E2). The test is classed as biochemical. The source says:
TIE-2 Enzyme Assay (TIE2-E)
The TIE-2 enzyme assay uses the LANCE method (Wallac) and GST-TIE2, baculovirus expressed recombinant constructs of the intracellular domains of human TIE2 (amino acids 762-1104, GenBank Accession # L06139) tagged by GST). The method measures the ability of the purified enzymes to catalyse the transfer of the γ-phosphate from ATP onto tyrosine residues in a biotinylated synthetic peptide, D1-15 (biotin-C6-LEARLVAYEGWVAGKKKamide). This peptide phosphorylation is detected using the following procedure: for enzyme preactivation, GST-TIE2 is incubated for 30 mins at room temperature with 2 mM ATP, 5 mM MgCl2 and 12.5 mM DTT in 22.5 mM HEPES buffer (pH7.4). Preactivated GST-TIE2 is incubated for 30 mins at room temperature in 96 well plates with 1 uM D1-15 peptide, 80 uM ATP, 10 mM MgCl2, 0.1 mg/ml BSA and the test compound (diluted from a 10 mM stock in DMSO, final DMSO concentration is 2.4%) in 1 mM HEPES (pH7.4). The reaction is stopped by the addition of EDTA (final concentration 45 mM). Streptavidin linked-APC (allophycocyanin, Molecular Probe) and Europium-labeled anti-phosphorylated tyrosine antibody (Wallac) are then added at the final concentration of 17 ug/well and 2.1 ug/well, respectively. The APC signal is measured using an ARVO multilabel counter. […] The percent inhibition of activity is calculated relative to blank control wells. […]

Some results are limits rather than exact numbers.

Recombinant GST-Tie2, sequence (Q02763 23-1124): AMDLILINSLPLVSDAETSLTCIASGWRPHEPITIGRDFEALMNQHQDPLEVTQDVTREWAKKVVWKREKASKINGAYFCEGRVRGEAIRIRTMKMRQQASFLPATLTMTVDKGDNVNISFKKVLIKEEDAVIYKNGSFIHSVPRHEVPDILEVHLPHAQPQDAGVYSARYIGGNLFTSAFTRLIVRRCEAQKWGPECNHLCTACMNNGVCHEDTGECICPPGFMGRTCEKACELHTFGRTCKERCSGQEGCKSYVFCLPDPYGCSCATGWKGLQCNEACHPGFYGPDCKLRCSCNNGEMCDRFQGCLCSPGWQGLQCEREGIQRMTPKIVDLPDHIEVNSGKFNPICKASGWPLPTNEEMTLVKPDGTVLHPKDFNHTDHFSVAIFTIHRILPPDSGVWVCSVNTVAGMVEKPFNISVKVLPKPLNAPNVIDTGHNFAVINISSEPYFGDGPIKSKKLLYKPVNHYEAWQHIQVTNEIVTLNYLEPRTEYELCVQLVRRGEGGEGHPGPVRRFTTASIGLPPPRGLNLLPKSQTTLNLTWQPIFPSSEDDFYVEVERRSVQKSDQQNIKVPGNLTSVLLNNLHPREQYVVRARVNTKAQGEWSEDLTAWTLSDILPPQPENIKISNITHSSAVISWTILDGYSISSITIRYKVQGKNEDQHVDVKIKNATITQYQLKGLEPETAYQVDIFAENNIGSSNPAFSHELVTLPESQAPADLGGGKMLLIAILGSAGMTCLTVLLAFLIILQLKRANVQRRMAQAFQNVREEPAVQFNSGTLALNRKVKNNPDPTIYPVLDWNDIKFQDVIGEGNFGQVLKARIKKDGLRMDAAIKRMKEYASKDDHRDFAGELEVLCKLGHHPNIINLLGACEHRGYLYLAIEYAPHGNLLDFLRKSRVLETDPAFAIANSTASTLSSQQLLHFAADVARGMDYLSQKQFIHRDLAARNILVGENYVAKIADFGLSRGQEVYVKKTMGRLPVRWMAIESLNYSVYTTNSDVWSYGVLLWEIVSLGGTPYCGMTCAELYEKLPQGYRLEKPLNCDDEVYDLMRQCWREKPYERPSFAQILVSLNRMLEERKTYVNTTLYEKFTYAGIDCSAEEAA

Take `CC(C)(C)n1nc(-c2ccc(NC(=O)Nc3cc(C(F)(F)F)ccc3F)cc2)c(C(N)=O)c1N` [Example 1, 5-Amino-1-tert-butyl-3-{4-[3-(2-fluoro-5-trifluoromethyl-phenyl)-ureido]-phenyl}-1H-pyrazole-4-carboxylic acid amide]: the IC50 (on Recombinant GST-Tie2; in test [1]) was less than 100 nM each time.
As for `CC(C)(C)c1cc(NC(=O)Nc2ccc(-c3nn(C(C)(C)C)c(N)c3C(N)=O)cc2)no1` [Example 35, 5-Amino-1-tert-butyl-3-{4-[3-(5-tert-butyl-isoxazol-3-yl)-ureido]-phenyl}-1H-pyrazole-4-carboxylic acid amide], the IC50 (at GST-VEGFR2 (read-out: VEGFR-2-E2 pIC50 (converted)); in test [2] (read-out: VEGFR-3-HTRF pIC50 (converted)); in test [3] (read-out: TIE-2-E2 pIC50 (converted))) was less than 100 nM each time.
On to “N,N-Dimethylamino-{4-[3-(fluoro-trifluoromethyl-phenyl)-ureido]-phenyl}-methyl-1H-pyrazole-4-carboxylic acid amide [Example 34]”, for which the “VEGFR-2-E2 pIC50” value at GST-VEGFR2 was “+ (+ = pIC50 of 5.0-6.0)”. The “VEGFR-3-HTRF pIC50” value in test [2] is given as “+ (+ = pIC50 of 5.0-6.0)”. In addition, in test [3], the “TIE-2-E2 pIC50” value is “+++ (+++ = pIC50 > 7.0)”.
